Data on four compounds can be found in patent US20170165230A1, “USE OF GSK-3 INHIBITORS OR ACTIVATORS WHICH MODULATE PD-1 OR T-BET EXPRESSION TO MODULATE T CELL IMMUNITY” (priority 2014, published 2017).

“Also recorded” adds a separate entry of the source. A value given as a limit tells only on which side of the number the result lay.

Data set [1] has as its system PD-1 expression on T-cells. Put plainly: FACS of PD-1 expression induced by mixed lymphocyte reaction (C57Bl/6 + ICR/CD1 spleen T-cells, 60 hours). The data set is classed as cell-based, mouse. Conditions: C57Bl/6 + ICR/CD1 co-culture, 60 hours (FIG. 5, 6).
Description: Cell flow cytometry with an acquisition of 10 000 events and data analysis using FlowJo).
C57BL/6J (B6) or outbred mouse CRI/CD1 T-cells were cultivated either alone or together at equal numbers (1×10^6/ml) for 60 hours in the presence or absence of the inhibitor followed by the harvesting of cells and FACs analysis for PD-1 using anti-PD-1-PE.
Data set [2] has as its system PD-1 expression on T-cells. The data set can be described thus: FACS of PD-1 expression on T-cells activated with anti-CD3 (2C11) for 48 hours. Conditions: anti-CD3 (2C11) 48 hours; anti-CD3 increased MFI by 5 fold (FIG. 4). The data set is classed as cell-based, mouse. How it is done:
For anti-CD3 activation of T-cells, cells were stimulated with 5 μg/ml of anti-CD3 (2C11) in RPMI medium supplemented with 10% FCS, 2 mM glutamine, 50 uM 2-ME, 100 U/ml penicillin/streptomycin for 2-4 days using established methods.
(§1) The presence of cells was confirmed by using forward scatter height or side scatter height n the form of a dot and contor plots. […] Non-stained cells were used a control.
(§2) The chemical structures of each inhibitor are shown on bottom and right sides of figure.
as §2

Data set [3] relates to PD-1 expression on T-cells. The data set can be described thus: Oral administration in drinking water, PD-1 expression on ex vivo anti-CD3 activated spleen cells. Also noted: species or system mouse. Conditions: B6 mice. How it is done: . […] By 48 hours, all water was consumed. […] Non-stained cells were used a control.
Data set [4] is described as follows: Oral administration in drinking water, cell numbers and viability of spleen cells.
Description: A stock solution 1 mg/ml was made in 1% DMSO. In one set, the 10 ug stock solution was diluted in 10 ml of water. […] By 48 hours, all water was consumed. Mice were then sacrificed, spleen extracted on 60 hours, cells were spun down at 1,800 for 3 min and ACK for removal of red blood cells (RBCs) treated for 2 min. Cells were then centrifuged at 1,800 rpm for 3 min and the absence of red blood cells was confirmed by the loss of red color in the cell pellet. […] An additional stimulant of 2 ug/ml ConA was also added at 48 hours of culture.
Ex vivo extracted cells were then cultured in 48 well tissue culture plates for 48 hours in the presence of anti-CD3 on plates (1 ug/ml).
Data set [5] deals with PD-1 expression on T-cells. Put plainly: FACS of PD-1 expression on Con A activated T-cells. In kind it is cell-based, mouse. To be noted: Con A activated T-cells (FIG. 5f). From the text: Another mode of T-cell activation involves the stimulation by the lectin Concanavalin A (Con A) (e, f). ConA binds α-D-mannosyl and α-D-glucosyl residues (two hexoses differing only by the alcohol on carbon 2) in terminal position of ramified structures from B-Glycans (reach in α-mannose, or hybrid and bi-antennary glycanes complexes). Con A is known to induce cell agglutination/clustering and to stimulate mouse T-cell subsets giving rise to four functionally distinct T cell populations, including precursors to suppressor T-cell (Dwyer and Johnson 1981 Clin Exp Immunol 46 (2): 237-49). (e) contains the bright field images of Con A activated cells with cell clustering observed in the presence and absence of GSK-3 inhibitor TDZD-8.

The next data set has as its system CD69 expression. The data set can be described thus: FACS of CD69 expression on T-cells from EL4-OVA tumor-bearing mice treated in vivo. Further details: species or system mouse. To be noted: EL4-OVA model (FIG. 12d).
For data set [6], the system named is Tbet (Tbx21) transcription. Put plainly: qPCR of Tbet transcription in OT-1 T-cells stimulated in vitro by OVA peptide/EL4. To be noted: OT-1 T-cells stimulated by OVA peptide in vitro (FIG. 1d). The data set is classed as cell-based, mouse. How it is done: (§3) Single-strand cDNA was synthesized with an RT-PCR kit (Qiagen, Hilden, Germany) according to the manufacturer's instructions. Reverse transcription was performed using the RNA polymerase chain reaction (PCR) core kit (Applied Biosystems). Relative quantitative real-time PCR used SYBR green technology (Roche) on cDNA generated from the reverse transcription of purified RNA. After preamplification (95° C. for 2 min), the PCRs were amplified for 40 cycles (95° C. for 15 s and 60° C. for 60 s) in a sequence detection system (PE Prism 7000; Perkin-Elmer Applied Biosystems, USA). mRNA expression was normalized against GAPDH expression using the standard curve method.
(§4) Cells were then stained for FACs with APC conjugated anti-PD-1 (CD279) (a, b) or subjected to qPCR (c, d) as described in the Materials and Methods. Reverse transcription was performed using the RNA polymerase chain reaction (PCR). PCRs were amplified for 40 cycles in a sequence detection system. mRNA expression was normalized against GAPDH (Glyceraldehyde 3-phosphate dehydrogenase) expression using the standard curve method.
A general note: In qPCR the cycle at which signal appears reflects the starting amount.

In data set [7] the test system is FasL expression. The data set can be described thus: FACS of FasL expression on OVA-activated OT-1 T-cells. In kind it is cell-based, mouse. From the text: (§5) Non-stained cells were used a control.
Data set [8] deals with FasL expression. The data set can be described thus: FACS of FasL expression on T-cells from EL4-OVA tumor-bearing mice treated in vivo. Further details: species or system mouse. Conditions: negative control (FIG. 9d). The source says:
Tumors were visible after 1 wk and grew progressively in an encapsulated fashion. Mice were young at 4-6 weeks.

The subject of data set [9] is Interferon-γ1 (IFN-γ1) expression. Put plainly: FACS of IFN-γ1 expression on T-cells from EL4-OVA tumor-bearing mice treated in vivo. Also noted: species or system mouse. To be noted: EL4-OVA model (FIG. 12b,c).
Data set [10] concerns PD-1 expression on OT-1 T-cells. Put plainly: FACS of PD-1 surface expression on OT-1 T-cells stimulated in vitro by OVA peptide presented by EL-4 cells. To be noted: OT-1 T-cells stimulated in vitro by OVA peptide presented by EL-4 cells (FIG. 1, 2, 3, 11). The data set is classed as cell-based, mouse. How it is done: as §5, §4
T-cells were incubated in the presence or absence of anti-PD-1 and then subjected to FACs or qPCR as described in the Materials and Methods.

A further data set deals with EL4-OVA target cells. Put plainly: Cytotoxicity assay: OT-1 CD8+ CTL killing of EL4-OVA target cells. To be noted: over a range of target:effector ratios (FIG. 1e,f).
The test system of a further data set is PD-1 transcription. The data set can be described thus: qPCR of PD-1 transcription in cells from EL4-OVA tumor-bearing OT-1 Tg mice. The data set is classed as in vivo, mouse. To be noted: cells at day 12, mice 4-6 weeks (FIG. 9b). The method, then: as §3, with “method. […]” for “method.”
The subject of data set [11] is panel of 24 other protein kinases. To be noted: selectivity; cited from earlier work.
Another data set deals with CD3 expression. Put plainly: FACS of CD3 expression on OVA-activated OT-1 T-cells. In kind it is cell-based, mouse.
Description: as §1

In another data set the test system is EL4 tumor cells. The data set can be described thus: Intradermal EL4 / EL4-OVA tumor model in OT-1 Tg mice, tumor growth. In kind it is in vivo, mouse. Conditions: OVA peptide 2, 5 and 10 ug, 10 days, young mice 4-6 weeks (FIG. 9a).
The test system of data set [12] is PD-1 expression on T-cells. The data set can be described thus: FACS of PD-1 expression on T-cells from EL4-OVA tumor-bearing mice treated in vivo. Also noted: species or system mouse. Conditions: EL4-OVA model.
The next data set concerns Tbet transcription. Put plainly: qPCR of Tbet transcription in cells from EL4-OVA tumor-bearing OT-1 Tg mice. In kind it is in vivo, mouse. Conditions: cells at day 12, mice 4-6 weeks (FIG. 9c). The method, then:
as §3, with “method. […]” for “method.”

Data set [13] has as its system CTLA-4 (CD152) expression. Put plainly: FACS of CTLA-4 (CD152) expression on T-cells from EL4-OVA tumor-bearing mice treated in vivo. Conditions: EL4-OVA model (FIG. 12e). Further details: species or system mouse.

Description for EL4-OVA target cells: Cytotoxicity was assayed using a Cytotox 96 nonradioactive kit (Promega) following the instructions provided and using established methods. In brief, purified T cells were plated in 96-well plates at the effector/target ratios shown using 10^4 EL4 (ova peptide-pulsed) target cells per well in a final volume of 200 μl per well using RPMI lacking phenol red. Target cells per well were in a final volume of 200 μl per well using RPMI lacking phenol red. Lactate dehydrogenase release was assayed after 4 h incubation at 37° C. by removal of 50 μl supernatant from each well and incubation with substrate provided for 30 min and the absorbance read at 490 nm using the Thermomax plate reader (Molecular Devices). Percentage cytotoxicity=((experimental effectorspontaneous−target spontaneous)/(targetmaximum−target spontaneous))×100.

Regarding `COc1ccc(CNC(=O)Nc2ncc([N+](=O)[O-])s2)cc1` [AR-A014418, N-[(4-Methoxyphenyl)methyl]-N′-(5-nitro-2-thiazolyl)urea], in data set [1], the “PD-1 expression induced in the MLR (FACS)” value was “inhibition of PD-1 expression”. In [2], the “inhibition of anti-CD3 induced increase in PD-1 expression (MFI)” value was > 45%.
On the same counts, the results for `Cc1c[nH]c(-c2cnc(NCCNc3ccc(C#N)cn3)nc2-c2ccc(Cl)cc2Cl)n1.Cl` [CHIR-99021, 6-(2-(4-(2,4-dichlorophenyl)-5-(4-methyl-1H-imidazol-2-yl)pyrimidin-2-ylamino)ethylamino)nicotinonitrile hydrochloride] are “inhibition of PD-1 expression” and > 55%.
Consider `Cn1sc(=O)n(Cc2ccccc2)c1=O` [TDZD-8, 1,2,4-Thiadiazolidine-3,5-dione, 2-methyl-4-(phenylmethyl)], for which the “percentage of T-cells expressing PD-1 after oral administration” value in data set [3] (drug in drinking water (FIG. 13e)) is on record as “reduce the percentage of T-cells expressing PD-1”. The “PD-1 expression on ex vivo cells after oral administration (FACS)” value in data set [3] (drug in drinking water, ex vivo anti-CD3 48 hours (FIG. 13d)) was “lower expression of PD-1”. In [4] (48 hours ex vivo culture (FIG. 13b,c)), the “cell death / viability of cells in ex vivo culture after oral administration” value is on record as “no indication of cell death; also recorded: no obvious long-term effect on viability”. Also, the “spleen cell numbers, drug treated versus untreated mice” value in [4] (oral, 2 mg/kg, spleen extracted at 60 hours) is given as “No difference on cell numbers”. Besides, the “fewer PD-1 positive cells” value in [5] is > 45%. Also, in data set [2], the “inhibition of anti-CD3 induced increase in PD-1 expression (MFI)” value is recorded as > 50%.
As to `Cn1cc(C2=C(c3ccc(Cl)cc3Cl)C(=O)NC2=O)c2ccccc21` [SB216763, 3-(2,4-dichlorophenyl)-4-(1-methyl-1H-indol-3-yl)-1H-pyrrole-2,5-dione], in the data set with CD69 expression, the “CD69 expression after in vivo administration (FACS)” value was “minor increase in CD69 expression”. In [6], the “Tbet transcription (qPCR)” value is listed as “increased Tbet transcription”. In addition, in the data set with FasL expression [7], the “FasL expression (FACS profile)” value is “unaltered FasL expression”. Moreover, the “FasL expression after in vivo administration (flow cytometry)” value in the data set with FasL expression [8] is recorded as “absence of an effect on FasL expression”. The “IFN-γ1 expression after in vivo administration (FACS)” value in [9] is on record as “increase expression of IFN-γ1 on a greater number of cells”. Further, the “PD-1 surface expression (FACS profile)” value in data set [10] was “reduced PD-1 expression; also recorded: decreased the number of cells expressing PD-1”. Also, the “OT-1 CTL killing of EL4-OVA targets (CTL function)” value in the data set with EL4-OVA target cells was “increase CTL function”. In addition, the “PD-1 transcription in vivo (qPCR)” value with PD-1 transcription was “inhibition of PD-1 transcription at all doses of OVA peptide”. Besides, the “inhibition of a panel of 24 other protein kinases” value in data set [11] was “Neither compound significantly inhibited any member”. Besides, the “CD3 expression (FACS profile)” value in the data set with CD3 expression is “unaltered CD3 expression”. The tumor growth result with EL4 tumor cells is “prevented tumor growth at all concentrations of OVA peptide”. In addition, in data set [12] (mice 4-6 weeks (FIG. 9d)), the “PD-1 expression on T-cells after in vivo administration (flow cytometry)” value is recorded as “PD-1 expression is reduced”. In addition, the “PD-1 expression on T-cells after in vivo administration (FACS)” value in data set [12] (tumor elimination (FIG. 12a)) is listed as “down-regulation of PD-1”. In addition, the “Tbet transcription in vivo (qPCR)” value with Tbet transcription is on record as “increased Tbet transcription”. The “CTLA-4 expression after in vivo administration (FACS)” value in data set [13] is recorded as “minor increase”.
